Earlier results as cited in patent US8697660B2, “Compounds and compositions for treating infection” (International Patent Holdings LLC, priority 2011, dated 2014).

Test system: HIV-1

## Prunellin
  minimum inhibition concentration against HIV-1 in vitro: 2.2 µg/mL
